Test results from patent publication US20190142886A1, “Ecklonia cava extract and a pharmaceutical composition for preventing or treating vascular diseases comprising the same as an active ingredient” (Gachon University of Industry-Academic Cooperation …, priority 2017, published 2019).

How the values were obtained:
liver tissue = test: Fat accumulation in liver tissue of ob/ob mouse (Oil-red-O); format: in vivo; settings: ob/ob mice, oral 2.5 mg/kg, 42 days; vs saline group, p<0.005
Text: (§1) 6-week-old male ob/ob mice were selected. Weight gain was induced by a general diet for 6 weeks. Then, the effect of the PPB prepared in Example 1 was investigated.
(§2) Particularly, the mice were adapted to the animal room environment for 1 week. Then, the mice were divided into two groups, which were fed with a general diet for 42 days (6 weeks). These two groups were the control (saline group) that was fed with a general diet and orally administered with saline and the experimental group (PPB group) that was fed with a general diet and orally administered with PPB at the dose of 2.5 mg/kg.
The liver tissues were obtained from the mice of the control group and the experimental group prepared in Example <4-1>. The obtained liver tissues were made into a frozen block, which was sectioned in the thickness of 10 μm. The tissue sections were stained with 0.375% (w/v) Oil-red-O powder. The stained tissues were photographed with Axio Imager Z1 upright microscopy system and the fat accumulation area was measured by using ImageJ 1.50i software.

fat cell = test: Fat cell size in obesity-induced ob/ob mouse model (H&E staining); format: in vivo; settings: ob/ob mice, oral 2.5 mg/kg, 42 days; vs saline group, p<0.005
Text: as §1, §2
The adipose tissues were obtained from the mice of the control group and the PPB-treated experimental group prepared in Example <4-1>, and the changes of fat cell size were observed.
Particularly, the adipose tissues obtained from the mice of the control and experimental groups were made into a paraffin block, which was sectioned in the thickness of 7 μm, followed by hematoxylin-eosin staining (H&E staining). The stained tissues were photographed with Axio Imager Z1 upright microscopy system and the cell size was measured by using ImageJ 1.50i software.

[1] = test system: Plasminogen activator inhibitor type-1 (PAI-1); test: Plasma PAI-1 level in ob/ob mouse by ELISA kit; format: in vivo; settings: ob/ob mice, oral 2.5 mg/kg, 42 days; compared with saline control group
Text: as §1, §2
In order to measure PAI-1, the biomarker for improving blood circulation, blood was collected from the mouse, and the plasma PAI-1 level was measured by using an ELISA kit.

[2] = test system: mouse-derived vascular endothelial cells (SVEC4-10); test: PPB in vascular endothelial cell death model (palmitic acid), MTT assay; format: cell-based; settings: 0.25 mM palmitic acid, 24 hours
Protocol: Mouse-derived vascular endothelial cells (SVEC4-10) in DMEM (Dulbecco's Modified Eagle Medium) supplemented with 10% fetal bovine serum and 1% antibiotics (penicillin/streptomycin) were cultured in a 37° C., 5% CO2 incubator. To obtain sufficient cells, the cells were cultured in 100 Ø plastic dishes. When the cells were cultured until the bottom of the dish was covered 80% by the cells, the adhered cells were detached using trypsin/EDTA solution and then sub-cultured.
The mouse-derived vascular endothelial cells (SVEC4-10) obtained in Example <5-1> were treated with 0.25 mM palmitic acid, leading to the construction of a vascular endothelial cell death model (in vitro).
The cells were treated with PPB at different concentrations for 24 hours. 24 hours later, MTT assay was performed to confirm the number of survived cells. From the result, the effect of PPB on the survival of vascular endothelial cells in the presence of palmitic acid was analyzed.

Oc1cc(O)cc(Oc2c(O)cc(Oc3cc(O)cc(Oc4c(O)cc(O)c5c4Oc4c(O)cc(O)c(-c6c(O)cc(O)c7c6Oc6c(O)cc(O)c(Oc8cc(O)cc(O)c8)c6O7)c4O5)c3)cc2O)c1 [PPB, pyrogallol-phloroglucinol-6,6-bieckol]
fat accumulation area in liver tissue (liver tissue): significantly decreased | fat cell size (fat cell): significantly decreased | blood PAI-1 level [1]: reduced | number of survived cells ([2]; 5 ug/ml, vs control non-treated with PPB): not much different | survival rate of vascular endothelial cells ([2]; 10 ug/ml): significantly increased
